Literature values as cited in US10689462B2, “Therapeutic and imaging compositions and uses thereof” (priority 2013, dated 2020).

Tests used:
[1] = room temperature
npc1^−/− mice = conditions: subcutaneous injection, 4.0 mg/kg of body weight
[2] = within 24 h

hydroxypropyl-β-cyclodextrin [HP-β-CD]
Solubility in water [1]: 650 mg/mL
Effect on survival, hepatopathology and neuropathology (npc1^−/− mice): improvement in their survival, hepatopathology, and neuropathology
Fraction cleared from the bloodstream [2]: > 90%
